Test [1] deals with Human α2δ-1 subunit of Cav2.2 calcium channel (Homo sapiens (Human), UniProt P54289). Description: Binding Assay to Human α2δ-1 Subunit of Cav2.2 Calcium Channel. The note with it: human α2δ-1 enriched membranes, 15 nM [3H]-Gabapentin, read-out: Ki(nM) alpha2delta Hum. The protocol: Binding Assay to Human α2δ-1 Subunit of Cav2.2 Calcium Channel.
NSB (non specific binding) was measured by adding 10 μM pregabalin. The binding of the test compound was measured in five different concentrations. After 60 min incubation at 27° C., binding reaction was terminated by filtering through Multiscreen GF/C (Millipore) presoaked in 0.5% polyethyleneimine in Vacuum Manifold Station, followed by 3 washes with ice-cold filtration buffer containing 50 mM Tris-HCl, pH 7.4.
(§1) Filter plates were dried at 60° C. for 1 hour and 30 μl of scintillation cocktail were added to each well before radioactivity reading.

Test [2] has as its target Human norepinephrine transporter (NET) (Homo sapiens (Human), UniProt P23975). As to the kind of experiment: Binding Assay to Human Norepinephrine Transporter (NET). The conditions noted are these: Table 2, dual compounds; human NET enriched membranes, 5 nM [3H]-Nisoxetin; read-out: Ki(nM) NET Hum. How it is done: Binding Assay to Human Norepinephrine Transporter (NET).
Human norepinephrine transporter (NET) enriched membranes (5 μg) were incubated with 5 nM of radiolabeled [3H]-Nisoxetin in assay buffer containing 50 mM Tris-HCl, 120 mM NaCl, 5 mM KCl, pH 7.4.
NSB (non specific binding) was measured by adding 10 μM desipramine. The binding of the test compound was measured in five different concentrations. After 60 min incubation at 4° C., binding reaction was terminated by filtering through Multiscreen GF/C (Millipore) presoaked in 0.5% polyethyleneimine in Vacuum Manifold Station, followed by 3 washes with ice-cold filtration buffer containing 50 mM Tris-HCl, 0.9% NaCl, pH 7.4.
as §1

Read-outs that look alike come from different tables or passages of the source. Some results are limits rather than exact numbers.

Results on 28 compounds are retold here after patent publication US11401270B2, “Alcoxyamino derivatives for treating pain and pain related conditions” (ESTEVE PHARMACEUTICALS, S.A., priority 2017, dated 2022).

Chain of Human norepinephrine transporter (NET) (P23975 whole entry): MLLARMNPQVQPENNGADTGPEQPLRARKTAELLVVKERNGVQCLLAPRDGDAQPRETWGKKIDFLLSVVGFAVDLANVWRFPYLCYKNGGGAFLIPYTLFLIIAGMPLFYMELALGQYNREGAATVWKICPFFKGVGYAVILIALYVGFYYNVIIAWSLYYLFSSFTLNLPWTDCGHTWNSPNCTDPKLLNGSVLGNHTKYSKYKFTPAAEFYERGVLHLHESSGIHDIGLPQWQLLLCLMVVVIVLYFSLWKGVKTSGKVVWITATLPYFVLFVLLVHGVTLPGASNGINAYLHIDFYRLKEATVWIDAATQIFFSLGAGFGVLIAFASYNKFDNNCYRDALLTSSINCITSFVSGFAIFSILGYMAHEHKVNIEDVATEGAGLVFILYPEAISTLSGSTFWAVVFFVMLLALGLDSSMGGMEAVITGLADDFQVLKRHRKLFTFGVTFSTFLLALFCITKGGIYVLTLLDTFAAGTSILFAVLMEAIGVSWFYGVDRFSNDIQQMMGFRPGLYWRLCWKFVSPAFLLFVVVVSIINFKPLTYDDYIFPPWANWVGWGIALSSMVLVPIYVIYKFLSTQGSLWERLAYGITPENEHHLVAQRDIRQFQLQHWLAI
Chain of Human α2δ-1 subunit of Cav2.2 calcium channel (P54289 25-1103): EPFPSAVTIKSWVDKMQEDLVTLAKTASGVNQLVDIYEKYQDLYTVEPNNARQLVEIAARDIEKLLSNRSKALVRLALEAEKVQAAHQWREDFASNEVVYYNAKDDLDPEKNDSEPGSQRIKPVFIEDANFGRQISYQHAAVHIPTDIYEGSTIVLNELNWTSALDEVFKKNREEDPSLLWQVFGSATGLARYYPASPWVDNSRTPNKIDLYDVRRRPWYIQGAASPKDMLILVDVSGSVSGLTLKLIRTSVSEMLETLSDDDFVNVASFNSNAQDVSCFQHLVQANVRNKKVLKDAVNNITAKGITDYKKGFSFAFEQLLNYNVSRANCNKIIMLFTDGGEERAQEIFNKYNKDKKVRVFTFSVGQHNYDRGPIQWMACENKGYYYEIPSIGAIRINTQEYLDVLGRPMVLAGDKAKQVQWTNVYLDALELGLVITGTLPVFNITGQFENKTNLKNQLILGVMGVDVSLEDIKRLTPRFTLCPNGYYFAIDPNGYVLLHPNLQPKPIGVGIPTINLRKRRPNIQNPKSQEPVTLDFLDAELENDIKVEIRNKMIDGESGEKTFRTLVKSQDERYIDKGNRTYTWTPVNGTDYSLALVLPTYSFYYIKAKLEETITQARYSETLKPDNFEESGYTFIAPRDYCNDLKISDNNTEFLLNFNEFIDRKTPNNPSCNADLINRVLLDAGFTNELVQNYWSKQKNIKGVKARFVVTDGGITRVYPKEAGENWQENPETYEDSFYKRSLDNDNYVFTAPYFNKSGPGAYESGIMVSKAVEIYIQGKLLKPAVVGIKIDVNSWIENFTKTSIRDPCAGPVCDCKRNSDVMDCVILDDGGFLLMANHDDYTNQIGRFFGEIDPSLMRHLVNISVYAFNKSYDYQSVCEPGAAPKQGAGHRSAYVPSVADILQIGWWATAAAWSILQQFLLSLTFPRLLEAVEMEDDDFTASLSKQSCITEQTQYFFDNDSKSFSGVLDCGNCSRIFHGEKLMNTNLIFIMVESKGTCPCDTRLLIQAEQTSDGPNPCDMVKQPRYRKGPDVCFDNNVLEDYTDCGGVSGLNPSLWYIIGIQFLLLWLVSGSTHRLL

As for `CNCCC(Oc1cccc(CN2CCN(C)c3ccccc3C2)c1)c1cccs1` (stereo not drawn) [Example 1, N-methyl-3-(3-((1-methyl-1,2,3,5-tetrahydro-4H-benzo[e][1,4]diazepin-4-yl)methyl)phenoxy)-3-(thiophen-2-yl)propan-1-amine], the Ki fell in the range of 100 to 500 nM in test [1] (Table 1); 100 to 500 nM in test [1] (Table 2, dual compounds); 500 to 1000 nM in test [2].

With `CNCCC(Oc1cccc(C(=O)N2CCCN(C)CC2)c1)c1ccccc1` (stereo not drawn) [Example 3, (4-Methyl-1,4-diazepan-1-yl)(3-(3-(methylamino)-1-phenylpropoxy)phenyl)methanone], the Ki in test [1] (Table 1) lay in the range of 500 to 3000 nM; in test [1] (Table 2, dual compounds) it was 500 to 3000 nM; in test [2], 100 to 500 nM.

With `CNCCC(OCc1cccc(N2CCCN(C)CC2)c1)c1ccccc1` (stereo not drawn) [Example 6, N-methyl-3-((3-(4-methyl-1,4-diazepan-1-yl)benzyl)oxy)-3-phenylpropan-1-amine], the Ki in test [1] (Table 1) was in the range of 500 to 3000 nM; in test [1] (Table 2, dual compounds) it was 500 to 3000 nM; in test [2], 100 to 500 nM.

As for `CNCC[C@@H](Oc1cccc(N2CCN(C)c3nc(C)ccc3C2=O)c1)c1ccsc1` [Example 79, (R)-1,8-dimethyl-4-(3-(3-(methylamino)-1-(thiophen-3-yl)propoxy)phenyl)-1,2,3,4-tetrahydro-5H-pyrido[2,3-e][1,4]diazepin-5-one], the Ki in test [1] (Table 1) was 100 to 500 nM.

As to `CNCC(OCc1ccc(N2CCN(C)c3ccccc3C2=O)cc1)c1ccccc1` (stereo not drawn) [Example 85, 1-Methyl-4-(4-((2-(methylamino)-1-phenylethoxy)methyl)phenyl)-1,2,3.4-tetrahydro-5H-benzo[e][1,4]diazepin-5-one], the Ki in test [1] (Table 1) is over 3000 nM.

As for `CCNC[C@@H]1CC(=O)N(c2cccc(O[C@@H](CCNC)c3cccs3)c2)CCN1C` [Example 87, (S)-7-((ethylamino)methyl)-1-methyl-4-(3-((S)-3-(methylamino)-1-(thiophen-2-yl)propoxy)phenyl)-1,4-diazepan-5-one], the Ki in test [1] (Table 1) fell in the range of 500 to 3000 nM.

Take `CNCCC(OCc1ccc(CN2CCN(C)c3ccccc3C2=O)cc1)c1ccccc1` (stereo not drawn) [Example 88, 1-Methyl-4-(4-((3-(methylamino)-1-phenylpropoxy)methyl)benzyl)-1,2,3,4-tetrahydro-5H-benzo[e][1,4]diazepin-5-one]: in test [1] (Table 1), the Ki was over 3000 nM.

In the case of `CNCCC(OCc1cccc(CN2CCN(C)c3ccccc3C2=O)c1)c1ccccc1` (stereo not drawn) [Example 89, 1-Methyl-4-(3-((3-(methylamino)-1-phenylpropoxy)methyl)benzyl)-1,2,3,4-tetrahydro-5H-benzo[e][1,4]diazepin-5-one], the Ki in test [1] (Table 1) is over 3000 nM.

`CNCC[C@H](Oc1ccc(CN2CCN(C)c3nc(N(C)C)ccc3C2=O)cc1)c1cccs1` [Example 95, (S)-8-(dimethylamino)-1-methyl-4-(4-(3-(methylamino)-1-(thiophen-2-yl)propoxy)benzyl)-1,2,3.4-tetrahydro-5H-pyrido[2,3-e][1,4]diazepin-5-one]: the Ki in test [1] (Table 1) lay within 500 to 3000 nM.

Turning to `CNCCC(Oc1ccc(CN2CCN(C)CCC2=O)cc1)c1cccs1` (stereo not drawn) [Example 101, 1-Methyl-4-(4-(3-(methylamino)-1-(thiophen-2-yl)propoxy)benzyl)-1,4-diazepan-5-one], the Ki in test [1] (Table 1) lay in the range of 100 to 500 nM.

With `CNCCC(Oc1ccc(CN2CCCN(C)CC2)cc1)c1cccs1` (stereo not drawn) [Example 102, N-methyl-3-(4-((4-methyl-1,4-diazepan-1-yl)methyl)phenoxy)-3-(thiophen-2-yl)propan-1-amine], in test [1] (Table 1), the Ki was over 3000 nM.

In the case of `CNCC[C@H](Oc1ccc(CN2CCCn3cccc3C2=O)cc1)c1cccs1` [Example 105, (S)-2-(4-(3-(methylamino)-1-(thiophen-2-yl)propoxy)benzyl)-2,3,4,5-tetrahydro-1H-pyrrolo[1,2-a][1,4]diazepin-1-one], the Ki in test [1] (Table 1) fell in the range of 500 to 3000 nM; in test [1] (Table 2, dual compounds), 500 to 3000 nM.

Consider `CNCCC(Oc1cccc(CN2CCN(C)c3ccccc3C2=O)c1)c1cccs1` (stereo not drawn) [Example 106, 1-Methyl-4-(3-(3-(methylamino)-1-(thiophen-yl)propoxy)benzyl)-1,2,3,4-tetrahydro-5H-benzo[e][1,4]diazepin-5-one], for which the Ki in test [1] (Table 1) fell in the range of 500 to 3000 nM.

On to `CNCC[C@H](Oc1ccc(CN2CCN(C)c3ncccc3C2=O)c(C)c1)c1cccs1` [Example 107, (S)-1-methyl-4-(2-methyl-4-(3-(methylamino)-1-(thiophen-2-yl)propoxy)benzyl)-1,2,3,4-tetrahydro-5H-pyrido[2,3-e][1,4]diazepin-5-one], for which the Ki in test [1] (Table 1) was under 100 nM.

Turning to `CNCC(OCc1ccc(CN2CCN(C)c3ccccc3C2=O)cc1)c1ccccc1` (stereo not drawn) [Example 109, 1-Methyl-4-(4-((2-(methylamino)-1-phenylethoxy)methyl)benzyl)-1,2,3,4-tetrahydro-5H-benzo[e][1,4]diazepin-5-one], the Ki in test [1] (Table 1) is over 3000 nM.

Consider `CNCCC(Oc1ccc(CN2CCN(C)c3ccccc3C2=O)cc1)c1ccccc1` (stereo not drawn) [Example 112, 1-Methyl-4-(4-(3-(methylamino)-1-phenylpropoxy)benzyl)-1,2,3,4-tetrahydro-5H-benzo[e][1,4]diazepin-5-one], for which the Ki in test [1] (Table 1) was over 3000 nM.

For `CNCCC(Oc1cccc(CN2CCN(C)c3ccccc3C2=O)c1)c1ccccc1` (stereo not drawn) [Example 113, 1-Methyl-4-(3-(3-(methylamino)-1-phenylpropoxy)benzyl)-1,2,3,4-tetrahydro-5H-benzo[e][1,4]diazepin-5-one], the Ki in test [1] (Table 1) is over 3000 nM.

Take `CNCCC(Oc1ccc(CN2CCN(C)CCC2=O)c(F)c1)c1cccs1` (stereo not drawn) [Example 122, 4-(2-Fluoro-4-(3-(methylamino)-1-(thiophen-2-yl)propoxy)benzyl)-1-methyl-1,4-diazepan-5-one]: the Ki in test [1] (Table 1) is 100 to 500 nM.

With `CNCC[C@H](Oc1ccc(CN2CCCn3nc(C)cc3C2=O)c(C)c1)c1cccs1` [Example 124, (S)-2-methyl-5-(2-methyl-4-(3-(methylamino)-1-(thiophen-2-yl)propoxy)benzyl)-5,6,7,8-tetrahydro-4H-pyrazolo[1,5-a][1,4]diazepin-4-one], in test [1] (Table 1), the Ki is under 100 nM.

Take `CNCC[C@H](Oc1ccc(CN2CCN(C)c3ncc(F)cc3C2=O)c(C)c1)c1cccs1` [Example 125, (S)-7-fluoro-1-methyl-4-(2-methyl-4-(3-(methylamino)-1-(thiophen-2-yl)propoxy)benzyl)-1,2,3,4-tetrahydro-5H-pyrido[2,3-e][1,4]diazepin-5-one]: the Ki in test [1] (Table 1) is under 100 nM.

Turning to `CNCC[C@H](Oc1ccc(CN2CCN(C)c3ncccc3C2=O)c(C(F)(F)F)c1)c1cccs1` [Example 127, (S)-1-methyl-4-(4-(3-(methylamino)-1-(thiophen-2-yl)propoxy)-2-(trifluoromethyl)benzyl)-1,2,3,4-tetrahydro-5H-pyrido[2,3-e][1,4]diazepin-5-one], the Ki in test [1] (Table 1) was under 100 nM.

As for `CNCC[C@H](Oc1ccc(CN2CCN(C)c3ncccc3C2=O)c(C2CC2)c1)c1cccs1` [Example 128, (S)-4-(2-cyclopropyl-4-(3-(methylamino)-1-(thiophen-2-yl)propoxy)benzyl)-1-methyl-1,2,3,4-tetrahydro-5H-pyrido[2,3-e][1,4]diazepin-5-one], in test [1] (Table 1), the Ki lay within 100 to 500 nM.

Regarding `CNCC[C@H](Oc1ccc(CN2CCN(C)c3ncccc3C2=O)c(C(F)(F)F)c1)c1ccccc1` [Example 130, (S)-1-methyl-4-(4-(3-(methylamino)-1-phenylpropoxy)-2-(trifluoromethyl)benzyl)-1,2,3,4-tetrahydro-5H-pyrido[2,3-e][1,4]diazepin-5-one], the Ki in test [1] (Table 1) was under 100 nM.

As for `CNCC[C@H](Oc1ccc(CN2CCN(C)c3ncccc3C2=O)c(C2CC2)c1)c1ccccc1` [Example 133, (S)-4-(2-cyclopropyl-4-(3-(methylamino)-1-phenylpropoxy)benzyl)-1-methyl-1,2,3,4-tetrahydro-5H-pyrido[2,3-e][1,4]diazepin-5-one], in test [1] (Table 1), the Ki is 100 to 500 nM.

As for `CNCC[C@@H](Oc1ccc(CN2CCN(C)c3ncccc3C2=O)c(F)c1)c1cccc(F)c1` [Example 135, (R)-4-(2-fluoro-4-(1-(3-fiuorophenyl)-3-(methylamino)propoxy)benzyl)-1-methyl-1,2,3,4-tetrahydro-5H-pyrido[2,3-e][1,4]diazepin-5-one], in test [1] (Table 1), the Ki lay in the range of 500 to 3000 nM.

Turning to `CNCC[C@H](Oc1ccc(CN2CCN(C)c3c(ccnc3OC)C2=O)c(F)c1)c1ccccc1` [Example 146, (S)-4-(2-fluoro-4-(3-(methylamino)-1-phenylpropoxy)benzyl)-9-methoxy-1-methyl-1,2,3,4-tetrahydro-5H-pyrido[3,4-e][1,4]diazepin-5-one], in test [1] (Table 1), the Ki was over 3000 nM.

For `CCNc1ccc2c(n1)N(C)CCN(Cc1ccc(O[C@H](CCNC)c3cccc(F)c3)cc1F)C2=O` [Example 147, (R)-8-(ethylamino)-4-(2-fluoro-4-(1-(3-fluorophenyl)-3-(methylamino)propoxy)benzyl)-1-methyl-1,2,3,4-tetrahydro-5H-pyrido[2,3-e][1,4]diazepin-5-one], in test [1] (Table 1), the Ki was over 3000 nM.

Turning to `CNCC[C@@H](Oc1ccc(CN2CCN(C)c3ncccc3C2=O)cc1)c1cccc(F)c1` [Example 150, (R)-(4-(1-(3-fluorophenyl)-3-(methylamino)propoxy)benzyl)-1-methyl-1,2,3,4-tetrahydro-5H-pyrido[2,3-e][1,4]diazepin-5-one], the Ki was 500 to 3000 nM in test [1] (Table 1) and 500 to 3000 nM in test [1] (Table 2, dual compounds).
